According to the NIST ThermoML archive (doi:10.1016/j.jct.2013.06.020):

Experiments:
[1] = 298.15 K, 101.33 kPa, Liquid; for speed of sound: Sing-around technique in a fixed-path interferometer; for mass density: Vibrating tube method
[2] = mn = molality of the nth substance listed, in mol/kg; details: 298.15 K, 101 kPa, Liquid; for speed of sound: Sing-around technique in a fixed-path interferometer; for mass density: Vibrating tube method

COC(=O)C(C)O (configuration not stated) [methyl 2-hydroxypropanoate]
[1]
Details | mass density [kg/m3] | speed of sound [m/s]
– | 1087.43 | 1338.8

COC(=O)CCC(C)=O [methyl levulinate]
[1]
Details | mass density [kg/m3] | speed of sound [m/s]
– | 1045.4 | 1386.2

O=Cc1ccco1 [2-furaldehyde]
[1]
Details | mass density [kg/m3] | speed of sound [m/s]
– | 1154.81 | 1440.2

Cc1ccc(C=O)o1 [5-methylfurfural]
[1]
Details | mass density [kg/m3] | speed of sound [m/s]
– | 1103.2 | 1447

CCOC(=O)CCC(C)=O [ethyl levulinate]
[1]
Details | mass density [kg/m3] | speed of sound [m/s]
– | 1007.54 | 1351.2

OCc1ccco1 [2-hydroxymethylfuran]
[1]
Details | mass density [kg/m3] | speed of sound [m/s]
– | 1130.27 | 1449.8

OCC1CCCO1 (configuration not stated) [2-tetrahydrofurylmethanol]
[1]
Details | mass density [kg/m3] | speed of sound [m/s]
– | 1050.75 | 1485.2

C=CC(=O)OC [methyl propenoate]
[1]
Details | mass density [kg/m3] | speed of sound [m/s]
– | 949.174 | 1169

CCOC(=O)C(C)O (racemic) [DL-ethyl lactate]
[1]
Details | mass density [kg/m3] | speed of sound [m/s]
– | 1028.37 | 1279.7

OCC1CCCO1 (configuration not stated) [2-tetrahydrofurylmethanol] + O
[2]
Details | mass density [kg/m3] | speed of sound [m/s]
m1 = 0.0115 | 997.245 | 1497.2
m1 = 0.0127 | 997.265 | 1497.4
m1 = 0.0141 | 997.289 | 1497.6
m1 = 0.0149 | 997.301 | 1497.7
m1 = 0.0183 | 997.356 | 1498.1
m1 = 0.0193 | 997.373 | 1498.2
m1 = 0.0223 | 997.421 | 1498.4
m1 = 0.0281 | 997.511 | 1498.5
m1 = 0.0286 | 997.518 | 1498.5
m1 = 0.0337 | 997.596 | 1498.7
m1 = 0.0441 | 997.835 | 1499.3
m1 = 0.0462 | 997.862 | 1499.5
m1 = 0.0496 | 997.893 | 1499.6
m1 = 0.0584 | 998.028 | 1500.3
m1 = 0.0686 | 998.155 | 1500.9
m1 = 0.0731 | 998.209 | 1501.1
m1 = 0.0948 | 998.467 | 1502.4
m1 = 0.1082 | 998.66 | 1503.2
m1 = 0.1478 | 999.071 | 1505.6
m1 = 0.2077 | 999.663 | 1509
m1 = 0.2552 | 1000.11 | 1511.8
m1 = 0.35 | 1000.98 | 1517.1
m1 = 0.4904 | 1002.2 | 1524.9
m1 = 0.678 | 1003.77 | 1534.7
m1 = 1.16 | 1007.55 | 1557.2
m1 = 1.996 | 1013.36 | 1589.1
m1 = 2.959 | 1020.27 | 1614.9
m1 = 3.175 | 1021.74 | 1620.8
m1 = 3.559 | 1024.37 | 1630.1
m1 = 5.556 | 1036.45 | 1672.3

CCCCOC(=O)C(C)O (configuration not stated) [butyl 2-hydroxypropanoate]
[1]
Details | mass density [kg/m3] | speed of sound [m/s]
– | 977.283 | 1285

CCCCOC(=O)CCC(C)=O [butyl levulinate]
[1]
Details | mass density [kg/m3] | speed of sound [m/s]
– | 969.935 | 1341.3
